According to US5981499A, “Lesion-directed antibiotics in dry dosage forms for the treatment of shallow ulcers of the oral mucosa” (Atlantic Biomed Corporation, priority 1998, dated 1999):
Counter-ions that a name gives are not always drawn. Like-named read-outs stand apart in the source and are kept apart here.

Columns and labels:
[1] = test system: aphthous ulcers; details: background, cited from earlier work; for efficacy of prior treatment: aphthous ulcers/stomatitis
[2] = test system: Patients with aphthous ulcers; assay: Topical treatment of patients with aphthous ulcers; type: in vivo, human
Description: Patients with aphthous ulcers were advised to brush their teeth to rid them of food residues, and to rinse their mouths with water prior to initiating treatment.
One penicillin/magnesium stearate troche was placed in the patients' mouths directly over the ulcerated lesion. The troche was dissolved or disintegrated in a minimum amount of saliva directly over the ulcer in no more than 15 minutes, preferably in about 8 to about 12 minutes. The patients were advised to keep the ingredients of the disintegrated troche at the site of the lesion as long as possible. Food and beverages were avoided for one hour after each treatment. If multiple aphthous ulcers were present, one troche was required for the treatment of each ulcer. The topical treatments were conducted 4 times daily, for example, after breakfast, after lunch, after dinner and before bed time for no more than 4 days. […] The burning sensation lessened with subsequent applications.
For instance, the first sign of healing is usually the fading of the hyperemic zone at the periphery of the ulcer and the lessening of edema at the base of the ulcer. The membrane covering the ulcer becomes thinner, more translucent, more pearly white instead of a grayish-yellowish white prior to the application and contract with the troche. […]

[3] = test system: Staphylococcus aureus (ATCC 29213); details: ATCC 29213, known range; cited from earlier work
[4] = Concentration at the ulcer assuming the troche dissolves in 0.1 ml of saliva; details: assuming troche dissolved in 0.1 ml saliva
Description: Application of the penicillin/magnesium stearate troches in the aforementioned manner created a supratherapeutic concentration of penicillin on the raw surface of the aphthous ulcer. Assuming that the troche is dissolved in 0.1 ml of saliva locally at the ulcer, the initial concentration of penicillin would reach up to 500 mg/ml, and that of magnesium stearate 10 mg/ml. Under the influence of this extraordinarily high concentration of penicillin G or penicillin V, most microorganisms of the normal flora cannot survive or continue to multiply, permitting tissue regeneration processes to occur under the protective barrier coating formed by the magnesium stearate.
When the oxytetracycline hydrochloride/magnesium stearate troches are applied in the manner described in Example 1, extraordinarily high concentrations of antibiotic were released on the raw surface of the treated ulcers. Assuming that the troche is dissolved in 0.1 ml of saliva, the peak concentration of oxytetracycline would be between about 400-800 mg/ml locally at the site of the ulcer, and that of magnesium stearate 10 mg/ml.

[5] = Local peak and one-hour trough antibiotic concentration in loculated saliva at the site of the troche (microbiological dilution assay); type: in vivo, human; details: 50 mg troche; for local trough concentration of penicillin in saliva: end of one-hour duration
[6] = test system: Staphylococcus aureus (ATCC 29213); assay: Minimum inhibitory concentration against the standard strain by serial two-fold dilution in nutrient broth; type: cell-based
Description: For determination of the peak concentration, 1 ml of the bacteria-free filtrate was further diluted with 9 ml of nutrient broth to achieve a 1:10,000 dilution of the saliva. Then a serial two-fold dilution was made of this 1:10,000 diluted saliva sample with an equal volume of nutrient broth in a roll of test tubes to obtain a series of 1 ml aliquots of nutrient broth in which the saliva was diluted to 20,000, 40,000, 80,000, 160,000, 320,000, 640,000, 1,280,000 and 2,560,000 folds respectively. […] Thus the final dilutions of the saliva sample were in the range of 40,000 to 5,120,000 folds.
As control standards, a series of test tubes containing 1 ml of nutrient broth with varying concentrations of penicillin G potassium salt ranging from 0.1 units to 10 units/ml were similarly mixed with an equal volume of nutrient broth freshly inoculated with the standard tubes of Staphylococcus aureus. Both the test and control standard tubes were incubated at 37° C. for 18 hours. Among the test tubes showing no gross evidence of bacterial growth, the one containing the highest dilution of saliva and the one containing the least amount of penicillin G were considered as having the identical concentration of penicillin, i.e. the MIC of the staphylococcus aureus.

[7] = test system: Gram-negative bacilli; details: cited from earlier work
[8] = single intravenous injection of penicillin G, usually 500 mg; cited from earlier work

CC1(C)S[C@@H]2[C@H](NC(=O)Cc3ccccc3)C(=O)N2[C@H]1C(=O)O [penicillin]
efficacy of prior treatment [1]: ineffective | adverse reactions of prior treatment [1]: likely to produce hypersensitivity | adverse reactions of stomatitis or discoloration of the tongue ([2]; 4 days of penicillin medication): no observed adverse reactions | status of ulcer after 4 days of medication ([2]; after 4 days): only remnants of a thin pearly whitish membrane remain, if any, covering an incompletely re-epithelialized newly healed ulcer | known minimum inhibitory concentration (MIC) of the standard strain [3]: 0.25-2 units of penicillin/ml

O=C1CCC(N2C(=O)c3ccccc3C2=O)C(=O)N1 (stereo not shown) [Thalidomide]
efficacy of prior treatment [1]: effective in some HIV-infected patients | adverse reactions of prior treatment [1]: teratogenic

O=S(=O)([O-])[O-].[Zn+2] [zinc sulfate]
efficacy of prior treatment [1]: responded

aluminum subsalt of sucrose-8-sulfate [sucralfate]
efficacy of prior treatment [1]: responded

CCCCCCCCCCCCCCCCCC(=O)O [magnesium stearate]
concentration of magnesium stearate at the ulcer [4]: 10000 µg/mL

CN(C)[C@@H]1C(=O)C(C(N)=O)=C(O)[C@@]2(O)C(=O)C3=C(O)c4c(O)cccc4[C@@](C)(O)[C@H]3[C@H](O)[C@@H]12 [oxytetracycline hydrochloride, Oxytetracycline hydrochloride]
initial/peak concentration of antibiotic at the ulcer [4]: 400 to 800 mg/mL | one-hour trough concentration of oxytetracycline hydrochloride in saliva ([5]; two subjects, 60 min): 8 mg/mL | Cmax ([5]; human, in vivo, topical or ocular, 50 mg, two subjects, read-out: initial peak concentration of oxytetracycline hydrochloride in saliva): 400000 µg/mL | concentration at 1 h ([5]; human, in vivo, topical or ocular, two subjects, read-out: one-hour trough concentration of oxytetracycline hydrochloride in saliva): 8000 µg/mL | MIC ([6]; Staphylococcus aureus, ATCC29213, ATCC 29213, read-out: sensitivity to oxytetracycline hydrochloride, MIC): 1 µg/mL

CC1(C)S[C@@H]2[C@H](NC(=O)Cc3ccccc3)C(=O)N2[C@H]1C(=O)O [penicillin G]
susceptibility of many Gram-negative bacilli (Salmonella, Shigella, most Escherichia coli, all Proteus mirabilis, most Bacteroides strains) ([7]; 740 mcg/ml as cut-off MIC): sensitive | susceptibility of Gram-negative bacilli ([7]; at 16 mcg/ml): resistant | average peak blood level [8]: about 26 units/ml | local trough concentration of penicillin in saliva [5]: 4,000-64,000 units/ml | local trough concentration of penicillin in saliva ([5]; 60 min): 2.5 to 40 mg/mL | Cmax ([5]; human, in vivo, topical or ocular, at complete dissolution, read-out: initial peak local concentration of penicillin G in saliva): 500000 µg/mL | MIC of penicillin G for the standard strain of Staphylococcus aureus ([6]; three experiments, 37° C., 18 hours): 1 unit/ml
